# In PMC5218480 (PLoS ONE, 2017):
# Tested on: MV-4-11 cells
# Assay: Gene expression microarray analysis (Affymetrix PrimeView) and GSEA
# Assay type: cell-based, human
# Design: RFU PODN (11730768_x_at) / Fold change /veh PODN (11730768_x_at) / RFU LINC00158 (11744669_a_at) / Fold change /veh LINC00158 (11744669_a_at) / RFU DUSP10 (11751237_a_at) / Fold change /veh DUSP10 (11751237_a_at) / RFU ID3 (11757404_x_at) / Fold change /veh ID3 (11757404_x_at) / RFU PLEKHG5 (11737974_s_at) / Fold change /veh PLEKHG5 (11737974_s_at) / RFU LRRC4B (11730491_at) / Fold change /veh LRRC4B (11730491_at) / RFU GIMAP4 (11747438_a_at) / Fold change /veh GIMAP4 (11747438_a_at) / RFU KRT8 (11758183_x_at) / Fold change /veh KRT8 (11758183_x_at) / RFU CNN1 (11734310_a_at) / Fold change /veh CNN1 (11734310_a_at) / RFU VPS37D (11726825_at) / Fold change /veh VPS37D (11726825_at) / RFU C10orf10 (11716522_x_at) / Fold change /veh C10orf10 (11716522_x_at) / RFU KIR2DL2 /// KIR2DL4 /// KIR2DL5A /// KIR2DL5B /// KIR2DS1 /// KIR2DS2 /// KIR2DS3 /// KIR2DS4 /// KIR3DL3 /// KIR3DL3 /// KIR3DS1 (11738374_at) / Fold change /veh KIR2DL2 /// KIR2DL4 /// KIR2DL5A /// KIR2DL5B /// KIR2DS1 /// KIR2DS2 /// KIR2DS3 /// KIR2DS4 /// KIR3DL3 /// KIR3DL3 /// KIR3DS1 (11738374_at) / RFU C1QL1 (11718748_at) / Fold change /veh C1QL1 (11718748_at) / RFU TMPRSS4 (11747572_a_at) / Fold change /veh TMPRSS4 (11747572_a_at) / RFU HAMP (11756126_x_at) / Fold change /veh HAMP (11756126_x_at) / RFU RNFT2 (11725882_a_at) / Fold change /veh RNFT2 (11725882_a_at) / RFU NR4A2 (11747474_a_at) / Fold change /veh NR4A2 (11747474_a_at) / RFU ABCC12 (11746883_a_at) / Fold change /veh ABCC12 (11746883_a_at) / RFU TMEM136 (11760407_x_at) / Fold change /veh TMEM136 (11760407_x_at) / RFU CLDN22 /// WWC2 (11732394_at) / Fold change /veh CLDN22 /// WWC2 (11732394_at) / RFU HLA-DPB1 (11760878_x_at) / Fold change /veh HLA-DPB1 (11760878_x_at) / RFU SPINT1 (11716480_a_at) / Fold change /veh SPINT1 (11716480_a_at) / RFU GAP43 (11754022_s_at) / Fold change /veh GAP43 (11754022_s_at) / RFU A4GNT (11735810_at) / Fold change /veh A4GNT (11735810_at) / RFU PRB3 (11715151_x_at) / Fold change /veh PRB3 (11715151_x_at) / RFU TUBB4B (11761932_at) / Fold change /veh TUBB4B (11761932_at) / RFU CAPN14 (11732068_a_at) / Fold change /veh CAPN14 (11732068_a_at) / RFU TMCC2 (11721928_a_at) / Fold change /veh TMCC2 (11721928_a_at) / RFU IRGQ (11745062_a_at) / Fold change /veh IRGQ (11745062_a_at) / RFU FAM174B (11720279_a_at) / Fold change /veh FAM174B (11720279_a_at) / RFU TMPRSS4 (11748680_a_at) / Fold change /veh TMPRSS4 (11748680_a_at) / RFU FAM212B (11763350_a_at) / Fold change /veh FAM212B (11763350_a_at) / RFU PLEKHG5 (11743358_a_at) / Fold change /veh PLEKHG5 (11743358_a_at) / RFU ZSCAN30 (11745921_a_at) / Fold change /veh ZSCAN30 (11745921_a_at) / RFU CMKLR1 (11741424_a_at) / Fold change /veh CMKLR1 (11741424_a_at) / RFU LOC101060620 /// MAPK8IP1 (11723275_at) / Fold change /veh LOC101060620 /// MAPK8IP1 (11723275_at) / RFU SPTSSB (11747773_x_at) / Fold change /veh SPTSSB (11747773_x_at) / RFU PRSS12 (11739890_at) / Fold change /veh PRSS12 (11739890_at) / RFU BIN1 (11741810_x_at) / Fold change /veh BIN1 (11741810_x_at) / RFU WNT11 (11732464_a_at) / Fold change /veh WNT11 (11732464_a_at) / RFU C10orf10 (11716521_a_at) / Fold change /veh C10orf10 (11716521_a_at) / RFU C5orf56 (11738089_at) / Fold change /veh C5orf56 (11738089_at) / RFU CYB561 (11721691_x_at) / Fold change /veh CYB561 (11721691_x_at) / RFU ANKRD19P (11752326_a_at) / Fold change /veh ANKRD19P (11752326_a_at) / RFU OR2T12 /// OR2T33 /// OR2T8 (11738714_s_at) / Fold change /veh OR2T12 /// OR2T33 /// OR2T8 (11738714_s_at) / RFU VCAN (11748164_a_at) / Fold change /veh VCAN (11748164_a_at) / RFU JSRP1 (11732532_at) / Fold change /veh JSRP1 (11732532_at) / RFU KRTAP10-11 (11738290_x_at) / Fold change /veh KRTAP10-11 (11738290_x_at) / RFU MYO3A (11730013_a_at) / Fold change /veh MYO3A (11730013_a_at) / RFU EBF3 (11725865_a_at) / Fold change /veh EBF3 (11725865_a_at) / RFU CAMK2N1 (11719241_x_at) / Fold change /veh CAMK2N1 (11719241_x_at) / RFU C5orf56 (11738088_a_at) / Fold change /veh C5orf56 (11738088_a_at) / RFU OLFML3 (11715873_a_at) / Fold change /veh OLFML3 (11715873_a_at) / RFU LOC100653217 /// NTM (11731650_a_at) / Fold change /veh LOC100653217 /// NTM (11731650_a_at) / RFU MAPK11 (11762145_a_at) / Fold change /veh MAPK11 (11762145_a_at) / RFU FIZ1 (11724087_x_at) / Fold change /veh FIZ1 (11724087_x_at) / RFU OASL (11726364_x_at) / Fold change /veh OASL (11726364_x_at) / RFU SOX15 (11748057_x_at) / Fold change /veh SOX15 (11748057_x_at) / RFU CD79A (11719716_a_at) / Fold change /veh CD79A (11719716_a_at) / RFU HIST1H1D (11736915_at) / Fold change /veh HIST1H1D (11736915_at) / RFU CASKIN2 (11723855_a_at) / Fold change /veh CASKIN2 (11723855_a_at) / RFU LOC730098 (11760151_x_at) / Fold change /veh LOC730098 (11760151_x_at) / RFU OR4N2 (11742367_at) / Fold change /veh OR4N2 (11742367_at) / RFU PRRT2 (11749266_a_at) / Fold change /veh PRRT2 (11749266_a_at) / RFU SNX32 (11753110_a_at) / Fold change /veh SNX32 (11753110_a_at) / RFU CDHR5 (11726645_a_at) / Fold change /veh CDHR5 (11726645_a_at) / RFU RCAN1 (11760418_a_at) / Fold change /veh RCAN1 (11760418_a_at) / RFU FAM167A (11723789_a_at) / Fold change /veh FAM167A (11723789_a_at) / RFU FAM26E (11764081_at) / Fold change /veh FAM26E (11764081_at) / RFU ISYNA1 (11749810_s_at) / Fold change /veh ISYNA1 (11749810_s_at) / RFU ACY1 (11761880_at) / Fold change /veh ACY1 (11761880_at) / RFU 11764098_at / Fold change /veh 11764098_at / RFU SAMD14 (11745864_x_at) / Fold change /veh SAMD14 (11745864_x_at) / RFU NPB (11741838_a_at) / Fold change /veh NPB (11741838_a_at) / RFU TMPRSS6 (11731388_a_at) / Fold change /veh TMPRSS6 (11731388_a_at) / RFU KRTAP10-2 (11738614_at) / Fold change /veh KRTAP10-2 (11738614_at) / RFU ARHGAP8 /// PRR5-ARHGAP8 (11727945_x_at) / Fold change /veh ARHGAP8 /// PRR5-ARHGAP8 (11727945_x_at) / RFU KRTAP5-7 /// NADSYN1 (11734609_at) / Fold change /veh KRTAP5-7 /// NADSYN1 (11734609_at) / RFU RASL12 (11751679_a_at) / Fold change /veh RASL12 (11751679_a_at) / RFU CDKN2B (11736163_a_at) / Fold change /veh CDKN2B (11736163_a_at) / RFU PRF1 (11729649_at) / Fold change /veh PRF1 (11729649_at) / RFU, ZNF638 /// ZNF638-IT1 / Fold change vs veh, ZNF638 /// ZNF638-IT1 / RFU, PANK3 / Fold change vs veh, PANK3 / RFU, SH3YL1 / Fold change vs veh, SH3YL1 / RFU, ZEB2 / Fold change vs veh, ZEB2 / RFU, NRIP1 / Fold change vs veh, NRIP1 / RFU, PTTG1IP / Fold change vs veh, PTTG1IP / RFU, CAPN2 / Fold change vs veh, CAPN2 / RFU, MED14 / Fold change vs veh, MED14 / RFU, SNORA58 / Fold change vs veh, SNORA58 / RFU, C1orf63 / Fold change vs veh, C1orf63 / RFU, LRRFIP1 / Fold change vs veh, LRRFIP1 / RFU, NDUFAF7 / Fold change vs veh, NDUFAF7 / RFU, SLC12A2 / Fold change vs veh, SLC12A2 / RFU, IBTK / Fold change vs veh, IBTK / RFU, ESF1 / Fold change vs veh, ESF1 / Fold change vs veh, TMEM50B / RFU, TAOK1 / Fold change vs veh, TAOK1 / RFU, ACBD3 / Fold change vs veh, ACBD3 / RFU, TMA16 / Fold change vs veh, TMA16 / RFU, RWDD3 / Fold change vs veh, RWDD3 / RFU, BCAT1 / Fold change vs veh, BCAT1 / RFU, EDEM3 / Fold change vs veh, EDEM3 / RFU, TMEM33 / Fold change vs veh, TMEM33 / RFU, WDR75 / Fold change vs veh, WDR75 / RFU, AHCTF1 / Fold change vs veh, AHCTF1 / RFU, TFRC / Fold change vs veh, TFRC / RFU, ZDHHC17 / Fold change vs veh, ZDHHC17 / RFU, NOM1 / Fold change vs veh, NOM1 / RFU, ARL8B / Fold change vs veh, ARL8B / RFU, ZBTB11 / Fold change vs veh, ZBTB11 / RFU, TAMM41 / Fold change vs veh, TAMM41 / RFU, KIAA1704 /// LOC100996395 / Fold change vs veh, KIAA1704 /// LOC100996395 / RFU, ING1 / Fold change vs veh, ING1 / RFU, TRMT61B / Fold change vs veh, TRMT61B / RFU, FUBP3 / Fold change vs veh, FUBP3 / RFU, TP53 / Fold change vs veh, TP53 / RFU, TNKS2 / Fold change vs veh, TNKS2 / RFU, ZFP14 / Fold change vs veh, ZFP14 / RFU, ACTR2 / Fold change vs veh, ACTR2 / RFU, PPP3R1 / Fold change vs veh, PPP3R1 / RFU, PIK3R1 / Fold change vs veh, PIK3R1 / RFU, HNRNPA1 / Fold change vs veh, HNRNPA1 / RFU, RNF170 / Fold change vs veh, RNF170 / RFU, ZNF28 / Fold change vs veh, ZNF28 / RFU, RNGTT / Fold change vs veh, RNGTT / RFU, OGT / Fold change vs veh, OGT / RFU, BRD1 / Fold change vs veh, BRD1 / RFU, MARS / Fold change vs veh, MARS / RFU, ZNF655 / Fold change vs veh, ZNF655 / RFU, FAHD1 / Fold change vs veh, FAHD1 / RFU, BDP1 / Fold change vs veh, BDP1 / RFU, LRRCC1 / Fold change vs veh, LRRCC1 / RFU, ARID1A / Fold change vs veh, ARID1A / RFU, ZNF146 / Fold change vs veh, ZNF146 / RFU, ZNF330 / Fold change vs veh, ZNF330 / RFU, GPN3 / Fold change vs veh, GPN3 / RFU, C9orf123 / Fold change vs veh, C9orf123 / RFU, N4BP2L2 / Fold change vs veh, N4BP2L2 / RFU, ARFIP1 / Fold change vs veh, ARFIP1 / RFU, FAM179B / Fold change vs veh, FAM179B / RFU, BCL10 / Fold change vs veh, BCL10 / RFU, UHRF1BP1L / Fold change vs veh, UHRF1BP1L / RFU, BET1 / Fold change vs veh, BET1 / RFU, CNOT2 / Fold change vs veh, CNOT2 / RFU, ZNF268 / Fold change vs veh, ZNF268 / Fold change vs veh, ZNF507 / RFU, DGCR2 / Fold change vs veh, DGCR2 / RFU, WDSUB1 / Fold change vs veh, WDSUB1 / Fold change vs veh, HSP90B1 /// MIR3652 / RFU, ADSS / Fold change vs veh, ADSS / RFU, GK / Fold change vs veh, GK / RFU, ZNF148 / Fold change vs veh, ZNF148 / RFU, TAF9 / Fold change vs veh, TAF9 / RFU, SLC1A5 / Fold change vs veh, SLC1A5 / RFU, SLMO2 / Fold change vs veh, SLMO2 / RFU, ABCC4 / Fold change vs veh, ABCC4 / RFU, LOC101060439 /// RAP1B / Fold change vs veh, LOC101060439 /// RAP1B / RFU, RFX7 / Fold change vs veh, RFX7 / RFU, GTPBP10 / Fold change vs veh, GTPBP10 / RFU, CNEP1R1 / Fold change vs veh, CNEP1R1 / RFU, BIVM-ERCC5 /// ERCC5 / Fold change vs veh, BIVM-ERCC5 /// ERCC5 / RFU, ILF3 / Fold change vs veh, ILF3 / RFU 11762660_at / Fold change /veh 11762660_at / RFU VCAN (11757783_s_at) / Fold change /veh VCAN (11757783_s_at) / RFU DDX43 (11728927_at) / Fold change /veh DDX43 (11728927_at) / RFU KRT8 (11758188_x_at) / Fold change /veh KRT8 (11758188_x_at) / RFU NKD1 (11759106_at) / Fold change /veh NKD1 (11759106_at) / RFU SRD5A1 (11742802_a_at) / Fold change /veh SRD5A1 (11742802_a_at) / RFU TPSAB1 /// TPSB2 (11721975_s_at) / Fold change /veh TPSAB1 /// TPSB2 (11721975_s_at) / RFU GSTM3 (11746129_a_at) / Fold change /veh GSTM3 (11746129_a_at) / RFU IL23R (11737362_x_at) / Fold change /veh IL23R (11737362_x_at) / RFU TMEM51 (11727254_a_at) / Fold change /veh TMEM51 (11727254_a_at) / RFU PIWIL2 (11732686_x_at) / Fold change /veh PIWIL2 (11732686_x_at) / RFU ORM1 (11744905_x_at) / Fold change /veh ORM1 (11744905_x_at) / RFU CCDC152 (11743942_at) / Fold change /veh CCDC152 (11743942_at) / RFU ECM1 (11717891_a_at) / Fold change /veh ECM1 (11717891_a_at) / RFU IL23R (11748794_a_at) / Fold change /veh IL23R (11748794_a_at) / RFU TNFAIP8L3 (11732012_x_at) / Fold change /veh TNFAIP8L3 (11732012_x_at) / RFU MBOAT4 (11741988_at) / Fold change /veh MBOAT4 (11741988_at) / RFU 11764193_at / Fold change /veh 11764193_at / RFU TMEM53 (11763286_at) / Fold change /veh TMEM53 (11763286_at) / RFU MAGEB2 (11727129_at) / Fold change /veh MAGEB2 (11727129_at) / RFU TMEM200A (11744735_a_at) / Fold change /veh TMEM200A (11744735_a_at) / RFU CCDC152 (11751479_a_at) / Fold change /veh CCDC152 (11751479_a_at) / RFU FAM211A (11726209_a_at) / Fold change /veh FAM211A (11726209_a_at) / RFU RGS16 (11746705_a_at) / Fold change /veh RGS16 (11746705_a_at) / RFU VCAN (11755009_s_at) / Fold change /veh VCAN (11755009_s_at) / RFU RHOB (11743442_s_at) / Fold change /veh RHOB (11743442_s_at) / RFU RGS16 (11720943_a_at) / Fold change /veh RGS16 (11720943_a_at) / RFU RGS16 (11720944_at) / Fold change /veh RGS16 (11720944_at) / RFU, VPS4B / Fold change vs veh, VPS4B / RFU, CREB1 / Fold change vs veh, CREB1 / RFU, DNAJC13 / Fold change vs veh, DNAJC13 / RFU, GNAQ / Fold change vs veh, GNAQ / RFU, CDK5R1 / Fold change vs veh, CDK5R1 / RFU, ZRANB3 / Fold change vs veh, ZRANB3 / RFU, CUL4A / Fold change vs veh, CUL4A / RFU, CCNY / Fold change vs veh, CCNY / RFU, UFL1 / Fold change vs veh, UFL1 / RFU, COG3 / Fold change vs veh, COG3 / RFU, DIAPH2 / Fold change vs veh, DIAPH2 / RFU, SKA2 / Fold change vs veh, SKA2 / RFU, AFF3 / Fold change vs veh, AFF3 / RFU, LMF1 / Fold change vs veh, LMF1 / RFU, IPO11 / Fold change vs veh, IPO11 / RFU, DFFB / Fold change vs veh, DFFB / RFU, FOXP1 / Fold change vs veh, FOXP1 / RFU, CARD8 / Fold change vs veh, CARD8 / RFU, STRN3 / Fold change vs veh, STRN3 / RFU, ADK / Fold change vs veh, ADK / RFU, RASSF2 / Fold change vs veh, RASSF2 / RFU, WIPF1 / Fold change vs veh, WIPF1 / RFU, LARP1B / Fold change vs veh, LARP1B / RFU, RASA1 / Fold change vs veh, RASA1 / RFU, RB1 / Fold change vs veh, RB1 / RFU, PPFIA1 / Fold change vs veh, PPFIA1 / RFU, MAT2A / Fold change vs veh, MAT2A / RFU, CCT5 / Fold change vs veh, CCT5 / RFU, WDR92 / Fold change vs veh, WDR92 / RFU, CUX1 / Fold change vs veh, CUX1 / RFU, TTC7A / Fold change vs veh, TTC7A / RFU, TMEM135 / Fold change vs veh, TMEM135 / RFU, DEPTOR / Fold change vs veh, DEPTOR / RFU, CPM / Fold change vs veh, CPM / RFU, DNAJB6 / Fold change vs veh, DNAJB6 / RFU, CACNA2D3 / Fold change vs veh, CACNA2D3 / RFU, DTX4 / Fold change vs veh, DTX4 / RFU, TFCP2 / Fold change vs veh, TFCP2 / RFU, GMCL1 /// GMCL1P1 / Fold change vs veh, GMCL1 /// GMCL1P1 / RFU, AEBP2 / Fold change vs veh, AEBP2 / RFU, SNHG1 /// SNORD22 /// SNORD25 /// SNORD26 /// SNORD27 /// SNORD28 /// SNORD29 /// SNORD31 / Fold change vs veh, SNHG1 /// SNORD22 /// SNORD25 /// SNORD26 /// SNORD27 /// SNORD28 /// SNORD29 /// SNORD31 / Fold change (Aza/veh), C12orf56 (ProbeSet 11735607_a_at) / Fold change (ACY-1035/veh), C12orf56 (ProbeSet 11735607_a_at) / Fold change (Aza/veh), FGFR1OP (ProbeSet 11751329_s_at) / Fold change (ACY-1035/veh), FGFR1OP (ProbeSet 11751329_s_at) / Fold change (Aza/veh), VPS36 (ProbeSet 11739960_a_at) / Fold change (ACY-1035/veh), VPS36 (ProbeSet 11739960_a_at) / RFU SYPL1 (11715823_x_at) / Fold change /veh SYPL1 (11715823_x_at) / RFU IGFBP7 (11715501_s_at) / Fold change /veh IGFBP7 (11715501_s_at) / RFU REEP3 (11722064_at) / Fold change /veh REEP3 (11722064_at) / RFU IGLL1 (11728026_x_at) / Fold change /veh IGLL1 (11728026_x_at): dose or concentration left out as unconfirmed
# Details: ProbeSet 11754362_a_at; LIST D
compound,measurement,value
Nc1ccc(-c2cccs2)cc1NC(=O)c1ccc2c(c1)cc(C1CC1)n2CCN1CCOCC1 [ACY-1035],"RFU, TTC7A",150.96 RFU
